Assay results as given in patent US11827628B2, “Compositions and methods for inhibition of the JAK pathway” (Rigel Pharmaceuticals, Inc., priority 2005, dated 2023).

Test system: Primary human T-cells
Assay: Primary Human T-Cell Proliferation Assay Stimulated with IL-2 (CellTiter-Glo)
Type: cell-based
Conditions: Homo sapiens, T-cell, primary human T-cells stimulated with IL-2, proliferation; read-out: IC50, Example 42
Summary of the method: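 Peripheral blood T-cells pre-activated with anti-CD3/anti-CD28 and IL-2 were washed free of IL-2, then cultured with compound plus IL-2 for 72 hours at 37° C, duplicate wells. Viability read as ATP by CellTiter-Glo luminescence; IC50 reported.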

SMILES | IC50 [nM]
COc1ccc(Nc2nc(Nc3cccc(S(N)(=O)=O)c3)ncc2F)cc1Cl [VI-107, N2-(3-Aminosulfonylphenyl)-5-fluoro-N4-(4-methoxy-3-chlorophenyl]-2,4-pyrimidinediamine] | 74.1
Cc1cnc(Nc2cccc(S(N)(=O)=O)c2)nc1Nc1ccc2c(c1)N(C)C(=O)CS2 [VII-35, N2-(3-Aminosulphonylphenyl)-5-methyl-N4-(4-methyl-3-oxo-benzo[1,4]thiazin-6-yl)-2,4-pyrimidinediamine] | 46.1
C#CCOC(=O)NCc1ccc(Nc2nc(Nc3cccc(S(N)(=O)=O)c3)ncc2F)cc1 [VI-74, N2-(3-Aminosulfonylphenyl)-5-fluoro-N4-{4-[(prop-2-ynyloxy)carbonylaminomethyl]phenyl}-2,4-pyrimidinediamine] | 348
Cc1ccc(Nc2ncc(F)c(Nc3cccc4c(CC#N)c[nH]c34)n2)cc1S(N)(=O)=O [IX-16, N2-(3-Aminosulfonyl-4-methylphenyl)-N4-(3-cyanomethyl-1H-indol-7-yl)-5-fluoro-2,4-pyrimidinediamine] | 223
Cc1ccc(Nc2ncc(F)c(Nc3ccc4c(CC#N)c[nH]c4c3)n2)cc1S(N)(=O)=O [IX-11, N2-(3-Aminosulfonyl-4-methylphenyl)-N4-(3-cyanomethyl-1H-indol-6-yl)-5-fluoro-2,4-pyrimidinediamine] | 215
Cc1cnc(Nc2cccc(S(N)(=O)=O)c2)nc1Nc1ccc2c(c1)NC(=O)CO2 [VII-32, N2-(3-Aminosulphonylphenyl)-5-methyl-N4-(3-oxo-benz[1,4]oxazin-6-yl)-2,4-pyrimidinediamine] | 32.1
NC(=O)c1cc2cc(Nc3nc(Nc4cccc(S(N)(=O)=O)c4)ncc3F)ccc2o1 [VII-54, N2-(3-Aminosulfonylphenyl)-N4-(2-aminocarbonylbenzofurane-5-yl)-5-fluoro-2,4-pyrimidinediamine] | 596
COc1ccc(CN2C(=O)C(C)Sc3ccc(Nc4nc(Nc5ccc(S(N)(=O)=O)cc5)ncc4F)cc32)cc1 (racemic) [Compound V-10, (R/S)-N2-(4-Aminosulphonylphenyl)-5-fluoro-N4-[2-methyl-3-oxo-4-(4-methoxybenzyl)-benzo[1,4]thiazin-6-yl]-2,4-pyrimidinediamine] | 8270
N#CCN1C(=O)COc2ccc(Nc3nc(Nc4ccc(S(N)(=O)=O)cc4)ncc3F)cc21 [Compound V-6, N2-(4-Aminosulphonylphenyl)-5-fluoro-N4-(3-oxo-4-cyanomethyl-benz[1,4]oxazin-6-yl]-2,4-pyrimidinediamine] | 70.8
NS(=O)(=O)c1cccc(Nc2ncc(F)c(Nc3ccc4sccc4c3)n2)c1 [VII-58, N2-(3-Aminosulfonylphenyl)-N4-(benzothiophen-5-yl)-5-fluoro-2,4-pyrimidinediamine] | 265
NS(=O)(=O)c1cccc(Nc2ncc(F)c(Nc3cccc(-c4cnco4)c3)n2)c1 [IV-1, N2-(3-Aminosulfonylphenyl)-5-fluoro-N4-[3-(1,3-oxazol-5-yl)phenyl]-2,4-pyrimidinediamine] | 287
Cc1ccc(Nc2ncc(F)c(Nc3ccc(C(F)(F)F)cc3)n2)cc1S(N)(=O)=O [VI-50, N2-(3-Aminosulfonyl-4-methylphenyl)-5-fluoro-N4-(4-trifluoromethylphenyl)-2,4-pyrimidinediamine] | 944
Cc1cnc(Nc2ccc(S(N)(=O)=O)cc2)nc1Nc1ccc2c(c1)NC(=O)CO2 [VII-31, N2-(4-Aminosulphonylphenyl)-5-methyl-N4-(3-oxo-benz[1,4]oxazin-6-yl)-2,4-pyrimidinediamine] | 174
Cc1cc(Nc2ncc(F)c(Nc3ccc(OC(F)(F)F)c(Cl)c3)n2)cc(S(N)(=O)=O)c1Cl [VI-18, N2-(3-Aminosulfonyl-4-chloro-5-methylphenyl)-N4-(3-chloro-4-trifluoromethoxyphenyl)-5-fluoro-2,4-pyrimidinediamine] | 4370
Cc1ccc(Nc2ncc(F)c(Nc3cccc4cccnc34)n2)cc1S(N)(=O)=O [VII-77, N2-(3-Aminosulfonyl-4-methylphenyl)-5-fluoro-N4-(quinolin-8-yl)-2,4-pyrimidinediamine] | 1780
C#CCn1ccc2cc(Nc3nc(Nc4cccc(S(N)(=O)=O)c4)ncc3F)ccc21 [IX-2, N2-(3-Aminosulfonylphenyl)-5-fluoro-N4-[1-(propyn-3-yl)indol-5-yl]-2,4-pyrimidinediamine] | 282
Cc1ccc(Nc2ncc(F)c(Nc3ccc(-c4cnco4)cc3)n2)cc1S(N)(=O)=O [IV-6, N2-(3-Aminosulfonyl-4-methylphenyl)-5-fluoro-N4-[4-(1,3-oxazol-5-yl)phenyl]-2,4-pyrimidinediamine] | 132
C#CCOc1ccc(Nc2nc(Nc3ccc(C(C)C)c(S(N)(=O)=O)c3)ncc2F)cc1 [VI-63, N2-[3-Aminosulfonyl-4-(2-propyl)phenyl]-5-fluoro-N4-[4-(prop-2-ynyloxy)phenyl]-2,4-pyrimidinediamine] | 363

SMILES | IC50 [nM]
CN1C(=O)C(C)(C)S(=O)(=O)c2ccc(Nc3nc(Nc4ccc(S(N)(=O)=O)cc4)ncc3F)cc21 [VII-12, N2-(4-Aminosulphonylphenyl)-5-fluoro-N4-(2,2,4-trimethyl-1,1,3-trioxo-benzo[1,4]thiazin-6-yl)-2,4-pyrimidinediamine] | 6690
C#CCOc1ccc(Nc2nc(Nc3ccc(Cl)c(S(N)(=O)=O)c3)ncc2F)cc1 [VI-55, N2-(3-Aminosulfonyl-4-chlorophenyl)-5-fluoro-N4-[4-(prop-2-ynyloxy)phenyl]-2,4-pyrimidinediamine] | 625
COc1cc(Nc2nc(Nc3ccc(C)c(S(N)(=O)=O)c3)ncc2F)ccc1Cl [VI-5, N2-(3-Aminosulfonyl-4-methylphenyl)-N4-(4-chloro-3-methoxyphenyl)-5-fluoro-2,4-pyrimidinediamine] | 718
NS(=O)(=O)c1cccc(Nc2ncc(F)c(Nc3ccc(C(=O)N4CCSCC4)cc3)n2)c1 [IX-34, N2-(3-Aminosulfonylphenyl)-5-fluoro-N4-[4-(4-thiomorpholinyl)carbonylphenyl]-2,4-pyrimidinediamine] | 576
N#CCc1c[nH]c2cc(Nc3nc(Nc4cccc(S(N)(=O)=O)c4)ncc3F)ccc12 [IX-12, N2-(3-Aminosulfonylphenyl)-N4-(3-cyanomethyl-1H-indol-6-yl)-5-fluoro-2,4-pyrimidinediamine] | 117
NS(=O)(=O)c1cccc(Nc2ncc(F)c(Nc3ccc(Cl)c(Cl)c3)n2)c1 [VI-110, N2-(3-Aminosulfonylphenyl)-N4-(3,4-dichlorophenyl)-5-fluoro-2,4-pyrimidinediamine] | 345
N#CCN1C(=O)CSc2ccc(Nc3nc(Nc4ccc(S(N)(=O)=O)cc4)ncc3F)cc21 [Compound V-11, N2-(4-Aminosulphonylphenyl)-5-fluoro-N4-(3-oxo-4-cyanomethyl-benzo[1,4]thiazin-6-yl)-2,4-pyrimidinediamine] | 795
NS(=O)(=O)c1ccc(Nc2ncc(F)c(NCCc3ccc(-n4ccnc4)cc3)n2)cc1 [III-90, N2-(4-Aminosulfonylphenyl)-5-fluoro-N4-[4-(1-imidazolyl)phenethyl]-2,4-pyrimidinediamine] | 468
CNC(=O)OCc1cccc(Nc2nc(Nc3ccc(C)c(S(N)(=O)=O)c3)ncc2F)c1 [VI-49, N2-(3-Aminosulfonyl-4-methylphenyl)-5-fluoro-N4-[3-(methylaminocarbonyloxymethyl)phenyl]-2,4-pyrimidinediamine] | 1260
NS(=O)(=O)c1cccc(Nc2ncc(F)c(Nc3ccc(C(F)(F)F)cc3)n2)c1 [VI-51, N2-(3-Aminosulfonylphenyl)-5-fluoro-N4-(4-trifluoromethylphenyl)-2,4-pyrimidinediamine] | 547
COc1ccc(Nc2nc(Nc3cc(C)c(F)c(S(N)(=O)=O)c3)ncc2F)cc1Cl [VI-15, N2-(3-Aminosulfonyl-4-fluoro-5-methylphenyl)-N4-(3-chloro-4-methoxyphenyl)-5-fluoro-2,4-pyrimidinediamine] | 469
C#CCOc1ccc(Nc2nc(Nc3ccc(N4CCN(C)CC4)c(S(N)(=O)=O)c3)ncc2F)cc1 [VI-70, N2-[3-Aminosulfonyl-4-(1-methylpiperazin-4-yl)phenyl]-5-fluoro-N4-[4-(prop-2-ynyloxy)phenyl]-2,4-pyrimidinediamine] | 311
CN1C(=O)CSc2ccc(Nc3nc(Nc4ccc(S(N)(=O)=O)cc4)ncc3F)cc21 [VII-48, N2-(4-Aminosulfonylphenyl)-5-fluoro-N4-(4-methyl-3-oxo-benz[1,4]thiazin-6-yl)-2,4-pyrimidinediamine] | 336
Cc1ccc(Nc2ncc(F)c(Nc3cccc(-c4cnco4)c3)n2)cc1S(N)(=O)=O [IV-2, N2-(3-Aminosulfonyl-4-methylphenyl)-5-fluoro-N4-[3-(1,3-oxazol-5-yl)phenyl]-2,4-pyrimidinediamine] | 362
N#CCc1c[nH]c2c(Nc3nc(Nc4cccc(S(N)(=O)=O)c4)ncc3F)cccc12 [IX-15, N2-(3-Aminosulfonylphenyl)-N4-(3-cyanomethyl-1H-indol-7-yl)-5-fluoro-2,4-pyrimidinediamine] | 157
Cc1ccc(Nc2ncc(F)c(Nc3ccc(C(=O)N4CCSCC4)cc3)n2)cc1S(N)(=O)=O [IX-35, N2-(3-Aminosulfonyl-4-methylphenyl)-5-fluoro-N4-[4-(4-thiomorpholinyl)carbonylphenyl]-2,4-pyrimidinediamine] | 866
Cc1ccc(Nc2ncc(F)c(Nc3ccc(C)c(S(N)(=O)=O)c3)n2)cc1S(N)(=O)=O [VI-114, N2,N4-Bis-(3-aminosulfonyl-4-methylphenyl)-5-fluoro-2,4-pyrimidinediamine] | 2240
